Data as given in patent US20100298141A1, “SUBSTITUTED PYRIDINE N-OXIDE HERBICIDES” (E. I. DU PONT DE NEMOURS AND COMPANY, priority 2007, published 2010).

Tests used:
[1] = test system: Virginia dayflower; experiment: Test F preemergence test; assay type: in vivo, Commelina virginica; details: scale 0 to 100
In short: (§1)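 Compounds in a non-phytotoxic solvent formulation with surfactant were applied before emergence after sowing, or, for sugarcane, also postemergence. Evaluation was visual, against controls, after 14 to 21 greenhouse days.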

[2] = test system: barnyardgrass; experiment: Test A pre-/postemergence greenhouse test; assay type: in vivo, Echinochloa crus-galli; details: for Barnyardgrass plant response rating: 0 to 100 scale; for Plant response rating, Barnyardgrass: 0 to 100 scale where 0 is no effect and 100 is complete control
In short: (§2)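 Greenhouse herbicide screen, pre- and postemergence in parallel. Soil: loam plus sand. Formulation: non-phytotoxic solvent mix with surfactant. Postemergence stage: one to two leaves, 2–10 cm height. Evaluation: visual injury, compared with untreated controls, about 10 days after treatment.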

[3] = test system: johnsongrass; experiment: Test F preemergence test; assay type: in vivo, Sorghum halepense; details: scale 0 to 100
In short: as §1

[4] = test system: itchgrass; experiment: Test F preemergence test; assay type: in vivo, Rottboellia cochinchinensis; details: scale 0 to 100
In short: as §1

[5] = test system: dallisgrass; experiment: Test F preemergence test; assay type: in vivo, Paspalum dilatatum; details: scale 0 to 100
In short: as §1

[6] = test system: Italian ryegrass; experiment: Test C pre-/postemergence test; assay type: in vivo, Lolium multiflorum; details: for Plant response rating, Ryegrass, Italian: 31 g ai/ha, scale 0 to 100 (0 no effect, 100 complete control)
In short: (§3)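 Compounds in a non-phytotoxic solvent with surfactant applied preemergence to seeded pots and, at the same time, postemergence to plants 2–18 cm tall (1- to 4-leaf stage). Paddy tests: pots flooded to 3 cm, compound applied into the water, depth held throughout.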

[7] = test system: goosegrass; experiment: Test F preemergence test; assay type: in vivo, Eleusine indica; details: scale 0 to 100
In short: as §1

[8] = test system: Russian thistle; experiment: Test C pre-/postemergence test; assay type: in vivo, Salsola kali; details: for Plant response rating, Russian Thistle: 31 g ai/ha, scale 0 to 100 (0 no effect, 100 complete control)
In short: as §3

[9] = test system: purple nutsedge; experiment: Test F preemergence test; assay type: in vivo, Cyperus rotundus; details: scale 0 to 100
In short: as §1

[10] = test system: velvetleaf; experiment: Test A pre-/postemergence greenhouse test; assay type: in vivo, Abutilon theophrasti; details: for Velvetleaf plant response rating: 0 to 100 scale; for Plant response rating, Velvetleaf: 0 to 100 scale where 0 is no effect and 100 is complete control
In short: as §2

[11] = test system: kochia; experiment: Test F preemergence test; assay type: in vivo, Kochia scoparia; details: scale 0 to 100
In short: as §1

[12] = test system: broadleaf signalgrass; experiment: Test F preemergence test; assay type: in vivo, Brachiaria platyphylla; details: scale 0 to 100
In short: as §1

[13] = test system: green foxtail; experiment: Test C pre-/postemergence test; assay type: in vivo, Setaria viridis; details: for Plant response rating, Foxtail, Green: 31 g ai/ha, scale 0 to 100 (0 no effect, 100 complete control)
In short: as §3

[14] = test system: common groundsel; experiment: Test F preemergence test; assay type: in vivo, Senecio vulgaris; details: scale 0 to 100
In short: as §1

[15] = Postemergence, 125 g ai/ha, 0 is no effect, 100 is complete control
[16] = Postemergence, 500 g ai/ha, 0 is no effect, 100 is complete control
[17] = Preemergence, 125 g ai/ha, 0 no effect, 100 complete control
[18] = preemergence, 250 g ai/ha, scale 0 (no effect) to 100 (complete control)
[19] = 62 g ai/ha, Preemergence, scale 0 to 100
[20] = 125 g ai/ha, preemergence, scale 0 (no effect) to 100 (complete control)

Cc1cc[n+]([O-])c(S(=O)(=O)C(Cl)c2c(C(F)(F)F)nn(C)c2OCC(F)(F)F)c1 (racemic) [Compound 37]
35: Itchgrass plant response rating ([4]; 62 g ai/ha, Preemergence) | Plant response rating, Signalgrass ([12]; Preemergence, 31 g ai/ha)
0: Plant response rating, Dayflower ([1]; 16 g ai/ha, preemergence) | Plant response rating, Itchgrass ([4]; 16 g ai/ha, preemergence) | Plant response rating, Itchgrass ([4]; Preemergence, 31 g ai/ha) | Plant response rating, Dallisgrass ([5]; 16 g ai/ha, preemergence) | Plant response rating, Ryegrass, Italian ([6]; Preemergence) | Plant response rating, Purple Nutsedge ([9]; 16 g ai/ha, preemergence) | Purple Nutsedge plant response rating ([9]; 62 g ai/ha, Preemergence) | Purple Nutsedge plant response rating ([9]; 125 g ai/ha, preemergence) | Plant response rating, Purple Nutsedge ([9]; Preemergence, 31 g ai/ha) | Velvetleaf plant response rating [10, 15] | Plant response rating, Kochia ([11]; 16 g ai/ha, preemergence) | Kochia plant response rating ([11]; 62 g ai/ha, Preemergence) | Kochia plant response rating ([11]; 125 g ai/ha, preemergence) | Plant response rating, Kochia ([11]; Preemergence, 31 g ai/ha) | Plant response rating, Foxtail, Green ([13]; Preemergence)
25: Plant response rating, Dallisgrass ([5]; Preemergence, 31 g ai/ha)
90: Plant response rating, Dayflower ([1]; Preemergence, 31 g ai/ha) | Barnyardgrass plant response rating [2, 17]
10: Velvetleaf plant response rating [10, 16]
75: Johnsongrass plant response rating ([3]; 62 g ai/ha, Preemergence) | Plant response rating, Johnsongrass ([3]; Preemergence, 31 g ai/ha) | Dallisgrass plant response rating ([5]; 62 g ai/ha, Preemergence) | Goosegrass plant response rating ([7]; 62 g ai/ha, Preemergence)
70: Barnyardgrass plant response rating [2, 16]
30: Barnyardgrass plant response rating [2, 15] | Plant response rating, Johnsongrass ([3]; 16 g ai/ha, preemergence)
40: Velvetleaf plant response rating [10, 17]
98: Goosegrass plant response rating ([7]; 125 g ai/ha, preemergence)
100: Dayflower plant response rating ([1]; 62 g ai/ha, Preemergence) | Dayflower plant response rating ([1]; 125 g ai/ha, preemergence) | Plant response rating, Barnyardgrass ([2]; Preemergence, 500 g ai/ha) | Johnsongrass plant response rating ([3]; 125 g ai/ha, preemergence) | Dallisgrass plant response rating ([5]; 125 g ai/ha, preemergence) | Ryegrass, Italian plant response rating [6, 18] | Plant response rating, Russian Thistle ([8]; Preemergence) | Russian Thistle plant response rating [8, 18] | Foxtail, Green plant response rating [13, 18]
20: Plant response rating, Signalgrass ([12]; 16 g ai/ha, preemergence)
65: Plant response rating, Goosegrass ([7]; 16 g ai/ha, preemergence) | Plant response rating, Goosegrass ([7]; Preemergence, 31 g ai/ha) | Plant response rating, Signalgrass ([12]; Preemergence, 62 g ai/ha)
80: Itchgrass plant response rating ([4]; 125 g ai/ha, preemergence) | Plant response rating, Velvetleaf ([10]; Preemergence, 500 g ai/ha)
95: Signalgrass plant response rating ([12]; 125 g ai/ha, preemergence)

CC(Oc1c(C[S+]([O-])c2cccc[n+]2[O-])c(C(F)(F)F)nn1C)C(F)(F)F (stereo not shown) [Compound 77]
75: Plant response rating, Johnsongrass ([3]; Preemergence, 31 g ai/ha) | Purple Nutsedge plant response rating ([9]; 125 g ai/ha, preemergence) | Kochia plant response rating ([11]; 62 g ai/ha, Preemergence) | Plant response rating, Signalgrass ([12]; Preemergence, 62 g ai/ha)
20: Plant response rating, Goosegrass ([7]; 16 g ai/ha, preemergence)
98: Dallisgrass plant response rating ([5]; 62 g ai/ha, Preemergence) | Ryegrass, Italian plant response rating [6, 19]
65: Itchgrass plant response rating ([4]; 62 g ai/ha, Preemergence)
95: Itchgrass plant response rating ([4]; 125 g ai/ha, preemergence)
25: Plant response rating, Signalgrass ([12]; Preemergence, 31 g ai/ha)
35: Plant response rating, Itchgrass ([4]; Preemergence, 31 g ai/ha)
100: Dayflower plant response rating ([1]; 125 g ai/ha, preemergence) | Plant response rating, Barnyardgrass ([2]; Preemergence, 500 g ai/ha) | Johnsongrass plant response rating ([3]; 125 g ai/ha, preemergence) | Dallisgrass plant response rating ([5]; 125 g ai/ha, preemergence) | Ryegrass, Italian plant response rating [6, 20] | Ryegrass, Italian plant response rating [6, 18] | Goosegrass plant response rating ([7]; 62 g ai/ha, Preemergence) | Goosegrass plant response rating ([7]; 125 g ai/ha, preemergence) | Russian Thistle plant response rating [8, 19] | Russian Thistle plant response rating [8, 20] | Plant response rating, Russian Thistle ([8]; Preemergence) | Russian Thistle plant response rating [8, 18] | Plant response rating, Velvetleaf ([10]; Preemergence, 500 g ai/ha) | Kochia plant response rating ([11]; 125 g ai/ha, preemergence) | Foxtail, Green plant response rating [13, 20] | Foxtail, Green plant response rating [13, 18]
30: Plant response rating, Dallisgrass ([5]; Preemergence, 31 g ai/ha)
50: Plant response rating, Velvetleaf ([10]; Postemergence, 125 g ai/ha) | Velvetleaf plant response rating [10, 17]
80: Plant response rating, Barnyardgrass ([2]; Postemergence, 125 g ai/ha) | Plant response rating, Ryegrass, Italian ([6]; Preemergence)
60: Plant response rating, Purple Nutsedge ([9]; Preemergence, 31 g ai/ha)
90: Barnyardgrass plant response rating [2, 16] | Barnyardgrass plant response rating [2, 17] | Velvetleaf plant response rating [10, 16] | Signalgrass plant response rating ([12]; 125 g ai/ha, preemergence)
85: Johnsongrass plant response rating ([3]; 62 g ai/ha, Preemergence) | Plant response rating, Goosegrass ([7]; Preemergence, 31 g ai/ha) | Foxtail, Green plant response rating [13, 19] | Plant response rating, Foxtail, Green ([13]; Preemergence)
0: Plant response rating, Dayflower ([1]; 16 g ai/ha, preemergence) | Dayflower plant response rating ([1]; 62 g ai/ha, Preemergence) | Plant response rating, Dayflower ([1]; Preemergence, 31 g ai/ha) | Plant response rating, Johnsongrass ([3]; 16 g ai/ha, preemergence) | Plant response rating, Itchgrass ([4]; 16 g ai/ha, preemergence) | Plant response rating, Dallisgrass ([5]; 16 g ai/ha, preemergence) | Plant response rating, Purple Nutsedge ([9]; 16 g ai/ha, preemergence) | Plant response rating, Groundsel ([14]; 16 g ai/ha, preemergence) | Groundsel plant response rating ([14]; 62 g ai/ha, Preemergence) | Groundsel plant response rating ([14]; 125 g ai/ha, preemergence) | Plant response rating, Groundsel ([14]; Preemergence, 31 g ai/ha) | Plant response rating, Kochia ([11]; 16 g ai/ha, preemergence) | Plant response rating, Kochia ([11]; Preemergence, 31 g ai/ha) | Plant response rating, Signalgrass ([12]; 16 g ai/ha, preemergence)

Cc1cc[n+]([O-])c(S(=O)(=O)Cc2c(C(F)(F)F)nn(C)c2Cl)c1 [Compound 19]
95: Signalgrass plant response rating ([12]; 125 g ai/ha, preemergence)
80: Barnyardgrass plant response rating [2, 16] | Barnyardgrass plant response rating [2, 17]
65: Dallisgrass plant response rating ([5]; 62 g ai/ha, Preemergence) | Signalgrass plant response rating ([12]; 62 g ai/ha, Preemergence)
15: Groundsel plant response rating ([14]; 62 g ai/ha, Preemergence)
40: Barnyardgrass plant response rating [2, 15] | Plant response rating, Johnsongrass ([3]; Preemergence, 16 g ai/ha) | Velvetleaf plant response rating [10, 16]
90: Dayflower plant response rating ([1]; 125 g ai/ha, preemergence) | Johnsongrass plant response rating ([3]; 62 g ai/ha, Preemergence) | Dallisgrass plant response rating ([5]; 125 g ai/ha, preemergence) | Goosegrass plant response rating ([7]; 62 g ai/ha, Preemergence)
50: Itchgrass plant response rating ([4]; 125 g ai/ha, preemergence) | Plant response rating, Velvetleaf ([10]; Preemergence, 500 g ai/ha)
98: Johnsongrass plant response rating ([3]; 125 g ai/ha, preemergence) | Plant response rating, Foxtail, Green ([13]; Preemergence)
60: Purple Nutsedge plant response rating ([9]; 62 g ai/ha, Preemergence) | Plant response rating, Signalgrass ([12]; Preemergence, 31 g ai/ha)
20: Plant response rating, Dallisgrass ([5]; Preemergence, 31 g ai/ha) | Velvetleaf plant response rating [10, 15]
0: Plant response rating, Dayflower ([1]; Preemergence, 16 g ai/ha) | Plant response rating, Dayflower ([1]; Preemergence, 31 g ai/ha) | Plant response rating, Itchgrass ([4]; Preemergence, 16 g ai/ha) | Plant response rating, Itchgrass ([4]; Preemergence, 31 g ai/ha) | Plant response rating, Dallisgrass ([5]; Preemergence, 16 g ai/ha) | Plant response rating, Ryegrass, Italian ([6]; Preemergence) | Plant response rating, Goosegrass ([7]; Preemergence, 16 g ai/ha) | Plant response rating, Purple Nutsedge ([9]; Preemergence, 16 g ai/ha) | Plant response rating, Purple Nutsedge ([9]; Preemergence, 31 g ai/ha) | Plant response rating, Groundsel ([14]; Preemergence, 16 g ai/ha) | Plant response rating, Groundsel ([14]; Preemergence, 31 g ai/ha) | Velvetleaf plant response rating [10, 17] | Kochia plant response rating ([11]; 62 g ai/ha, Preemergence) | Plant response rating, Kochia ([11]; Preemergence, 16 g ai/ha) | Plant response rating, Kochia ([11]; Preemergence, 31 g ai/ha)
100: Plant response rating, Barnyardgrass ([2]; Preemergence, 500 g ai/ha) | Goosegrass plant response rating ([7]; 125 g ai/ha, preemergence) | Russian Thistle plant response rating [8, 19] | Plant response rating, Russian Thistle ([8]; Preemergence) | Kochia plant response rating ([11]; 125 g ai/ha, preemergence) | Foxtail, Green plant response rating [13, 19] | Plant response rating (0 to 100), Foxtail, Green ([13]; Preemergence, 250 g ai/ha)
25: Itchgrass plant response rating ([4]; 62 g ai/ha, Preemergence)
30: Dayflower plant response rating ([1]; 62 g ai/ha, Preemergence) | Ryegrass, Italian plant response rating [6, 19]
70: Purple Nutsedge plant response rating ([9]; 125 g ai/ha, preemergence) | Groundsel plant response rating ([14]; 125 g ai/ha, preemergence)
75: Plant response rating, Johnsongrass ([3]; Preemergence, 31 g ai/ha) | Plant response rating, Goosegrass ([7]; Preemergence, 31 g ai/ha)
